O=C(O)c1ccc(Cl)cc1Cl
solubility (mole fraction)
Conditions | in acetone | in acetonitrile | in ethanol | in ethyl acetate | in isobutanol | in isopropanol | in methanol | in n-butanol | in n-propanol | in toluene
273.15 K | 0.0323 | 0.00318 | 0.0364 | 0.0232 | 0.0242 | 0.0367 | 0.0261 | 0.0374 | 0.0348 | 0.00132
278.15 K | 0.0359 | 0.00361 | 0.04 | 0.0263 | 0.0281 | 0.0412 | 0.0294 | 0.0418 | 0.0385 | 0.00174
283.15 K | 0.0394 | 0.00451 | 0.0442 | 0.0308 | 0.0326 | 0.0459 | 0.0331 | 0.0468 | 0.0422 | 0.0022
288.15 K | 0.0439 | 0.00531 | 0.0485 | 0.0347 | 0.0375 | 0.0501 | 0.0369 | 0.0511 | 0.0465 | 0.00284
293.15 K | 0.0482 | 0.00597 | 0.0537 | 0.0395 | 0.043 | 0.0565 | 0.0411 | 0.0563 | 0.052 | 0.0036
298.15 K | 0.0531 | 0.00702 | 0.0591 | 0.0441 | 0.0483 | 0.0627 | 0.0458 | 0.0616 | 0.0575 | 0.00433
303.15 K | 0.0585 | 0.00786 | 0.065 | 0.0484 | 0.0535 | 0.0699 | 0.0505 | 0.0676 | 0.0631 | 0.00552
308.15 K | 0.0648 | 0.00929 | 0.0719 | 0.0537 | 0.0597 | 0.0769 | 0.0556 | 0.0746 | 0.0695 | 0.00671
313.15 K | 0.0713 | 0.0103 | 0.0788 | 0.0595 | 0.066 | 0.0849 | 0.0616 | 0.0814 | 0.0763 | 0.00837
318.15 K | 0.0784 | 0.0115 | 0.0849 | 0.0654 | 0.0719 | 0.0944 | 0.0673 | 0.0891 | 0.0823 | 0.00993

From BigSolDB 2.1
